Data from patent US8361999B2, “Methods of treating cholesterol gallstone disease with ezetimibe” (Pontificia Universidad Catolica de Chile, priority 2005, dated 2013).
“Also recorded” adds a separate entry of the source.

Tests used:
Format in all cases: in vivo, mouse
[1] = test system: C57BL/6J mice; assay: Lithiasis of the gallbladder and cholesterol crystals in gallbladder bile, protocol #1 (14 days); conditions: for formation of cholesterol crystals and cholesterol gallstones: C57BL/6 mice on lithogenic diet plus ezetimibe
Text: Experimental Animal Disease Models. Spontaneous cholelithiasis is extremely rare in experimental or wild animals, probably because they secrete low levels of cholesterol into the bile and have therefore non-saturated cholesterol bile. However, different animal models (rabbit, hamster, prairie dog, squirrel and mouse) develop cholelithiasis similar to the human disease on cholesterol rich plus bile salts (cholic acid) and sometimes triglycerides rich experimental diets. The mouse is the best characterized experimental model where the development of the disease is dependent of a diet known as “lithogenic” (1.25% cholesterol, 0.5% cholic acid, 15% fat). Under these conditions most of the available mouse strains develop cholesterol cholelithiasis in variable proportions and times (Paigen, 2002). It has been established that there are strains more susceptible or more resistant to develop cholelithiasis, which could be genetically determined. The mice strains C57L and C57BL/6 are particularly susceptible to develop cholelithiasis (80-100% of the animals develop the disease in 2-4 weeks on lithogenic diet) (Paigen, 2002; Bouchard et al., unpublished data communicated in www.jax.org/pub-cgi/phenome). Studies performed in these models during the last years have been vital in the better understanding of the disease and for the discovery of genes that are potentially relevant in generating susceptibility to the illness (Paigen, 2002). In this preclinical innovation work we use the mouse strain C57BL/6.
(§1) We used mice C57BL/6J susceptible to the development of cholelithiasis originally obtained from Jackson Corp (Bar Harbor, Me., USA) and the colonies were grown in our Laboratory of Gastroenterology, Facultad de Medicina, P. Universidad Católica de Chile. The experimental groups were fed a control chow diet low in cholesterol (<0.02% cholesterol, Prolab RMH3000, PMI Feeds Inc., St. Louis, Mo.) or a lithogenic diet (1.25% cholesterol, 0.5% cholic acid, 15% fat, TD90221, Harlan Teklad, Madison, Wis.) (Amigo et al. 2000). These mice were also treated with Ezetimibe (Zetia®, Merk/Schering Plough) or placebo. In protocol #1 Zetia® tablets were grinded in a porcelain mortar and dissolved in water to be administered to the mice in one daily dose (08 h) of 5 mg/Kg weight by gavage in a final volume of […]; the control groups were given the same volume of water by gavage without the drug. In protocol #2 Zetia® tablets were grinded in the same way described above, dissolved in 200 cc 100% ethanol (Merck) and added to the lithogenic diet previously grinded and dried for 48 h at room temperature. C57BL/6J mice received this lithogenic diet plus Zetia® in a estimated dose of 5-6 mg/kg/day during 30 days (the mice consume 4-5 gr of diet per day). […]

[2] = test system: SR-BI; assay: Hepatic expression of SR-BI; conditions: 14 days
[3] = test system: C57BL/6J mice; assay: Lithiasis of the gallbladder and cholesterol crystals, protocol #2 (Ezetimibe in lithogenic diet, 30 days)
Protocol: as §1, with “drug.” for “drug. In protocol #2 Zetia® tablets were grinded in the same way described above, dissolved in 200 cc 100% ethanol (Merck) and added to the lithogenic diet previously grinded and dried for 48 h at room temperature. C57BL/6J mice received this lithogenic diet plus Zetia® in a estimated dose of 5-6 mg/kg/day during 30 days (the mice consume 4-5 gr of diet per day).”
Surgery and sample harvest. […] Afterwards, the common biliary duct is cannulated (biliary fistula) with a P-10 polyethylene cannula to collect bile during 15 minutes, determine bile flow by gravimetry (1 g bile=1 ml; bile flow is expressed as μl/min/g of mouse liver) and for posterior chemical analysis of biliary lipids and glutathione, as specified later. […]

Which “formation of cholesterol crystals and cholesterol gallstones” value [1] does the source give for `O=C1[C@H](CC[C@H](O)c2ccc(F)cc2)[C@@H](c2ccc(O)cc2)N1c1ccc(F)cc1` [Ezetimibe, (−)-1-(4-fluorophenyl)-(3R)-[3-(4-fluorophenyl)-(.S)-hydroxypropyl]-(4S)-(4-hydroxyphenyl)-2-azetidinone] here?
The value was “complete inhibition”.

What about the “formation of cholesterol crystals and cholesterol gallstones” value ([1]; listed as ezetimibe) of the same molecule?
The value was “inhibited”.

What about the “development of cholelithiasis or cholesterol crystals in the bile” value ([1]; control diet low in cholesterol plus Ezetimibe) of the same molecule?
The value was “did not develop cholelithiasis or cholesterol crystals”.

And the “mice that developed gallstones or cholesterol crystals in the gallbladder” value ([1]; lithogenic diet plus Ezetimibe 5 mg/kg/day by gavage, 100% in lithogenic diet plus water)?
Its value is “none”.

What about the “hepatic expression of SR-BI, lithogenic diet plus Ezetimibe vs lithogenic diet” value [2] of the same molecule?
Its value is “no significant differences”.

And the “mice that developed gallstones or cholesterol crystals in the gallbladder” value ([3]; lithogenic diet plus Ezetimibe 5-6 mg/kg/day in the diet, 30 days, 100% on lithogenic diet alone)?
Its value is 0%.

And the “formation of cholesterol gallstones” value ([3]; lithogenic diet plus Ezetimibe in the diet, 30 days (FIG. 5))?
Its value is “inhibits; also recorded: completely inhibited”.
